Common to all, as to type: biochemical
One assay addresses T1, FGFR1 (Homo sapiens, UniProt P11362).
T1 construct: cytoplasmic domain [398-822 (terminal) amino acids]; purchased Carna 08-133
The assay is described as follows: FGFR1 kinase activity inhibition assay (LanthaScreen TR-FRET). To be noted: FGFR1 kinase, TR-FRET; read-out: IC50 (nM) FGFR1. In a few lines: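 Emission ratio 520 nm/495 nm by TR-FRET after stopping reaction with 10 mM EDTA and 60 min incubation at 22°C. Inhibition normalized between no-enzyme (min) and DMSO (max) controls, then fitted to a four-parameter curve (Top, Bottom, HillSlope).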
For orientation: Time-resolved FRET reads energy transfer from a long-lived donor to a nearby acceptor.

The target in the next assay is T2, FGFR3 (Homo sapiens, UniProt P22607).
T2 construct: FGFR3's cytoplasmic domain [436-806 (terminal) amino acids]; purchased Carna 08-135
T2 sequence (P22607 436-806): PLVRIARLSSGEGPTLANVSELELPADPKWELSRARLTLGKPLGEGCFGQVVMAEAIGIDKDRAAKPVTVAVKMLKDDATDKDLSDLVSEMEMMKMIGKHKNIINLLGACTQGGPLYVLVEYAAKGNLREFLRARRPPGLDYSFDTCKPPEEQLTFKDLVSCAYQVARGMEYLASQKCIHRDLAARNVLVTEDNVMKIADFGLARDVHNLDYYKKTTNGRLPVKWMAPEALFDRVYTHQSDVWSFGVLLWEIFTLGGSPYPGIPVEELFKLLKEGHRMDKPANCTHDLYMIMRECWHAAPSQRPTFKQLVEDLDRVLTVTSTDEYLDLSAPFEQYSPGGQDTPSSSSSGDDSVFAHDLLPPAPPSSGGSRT
The assay is described as follows: FGFR3 kinase activity inhibition assay (LanthaScreen TR-FRET). Particulars: for IC50: FGFR3 kinase, TR-FRET, read-out: IC50 (nM) FGFR3; for Selectivity (X) FGFR1/FGFR3: ratio of IC50 FGFR1/FGFR3, selectivity towards FGFR3. In a few lines:
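Read-out is TR-FRET, with the 520 nm/495 nm emission ratio normalised to DMSO (max) and enzyme-free (min) controls. Enzyme was the FGFR3 cytoplasmic domain, residues 436-806. EDTA (10 mM) stopped the reaction, followed by 60 min at 22 °C before reading.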

For a further assay, the target named is T3, FGFR2 (Homo sapiens, UniProt P21802).
T3 construct: FGFR2's cytoplasmic domain [399-821 (terminal) amino acids]; purchased Carna 08-134
T3 sequence (P21802 399-821): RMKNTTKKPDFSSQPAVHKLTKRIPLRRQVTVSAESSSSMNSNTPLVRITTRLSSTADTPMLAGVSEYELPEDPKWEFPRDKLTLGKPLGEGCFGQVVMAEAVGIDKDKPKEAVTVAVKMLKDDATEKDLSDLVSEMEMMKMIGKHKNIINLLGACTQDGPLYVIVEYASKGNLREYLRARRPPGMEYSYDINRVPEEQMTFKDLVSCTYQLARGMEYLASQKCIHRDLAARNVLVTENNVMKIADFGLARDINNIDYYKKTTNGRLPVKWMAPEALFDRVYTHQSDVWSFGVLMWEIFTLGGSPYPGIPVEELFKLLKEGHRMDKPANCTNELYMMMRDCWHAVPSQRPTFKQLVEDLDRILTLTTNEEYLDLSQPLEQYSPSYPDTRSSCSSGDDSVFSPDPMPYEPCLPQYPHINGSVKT
The assay is described as follows: FGFR2 kinase activity inhibition assay (LanthaScreen TR-FRET). Particulars: FGFR2 kinase, TR-FRET; read-out: IC50 (nM) FGFR2. As for the experimental part: FGFR1 kinase activity was measured using Invitrogen LanthaScreen™ assay technology, which utilized fluorescently-labeled peptides and terbium-labeled antibodies to directly measure an amount of the phosphorylated substrate through time-resolved fluorescence energy transfer (TR-FRET). • ① The test compounds were diluted: starting from a concentration of 1 µM, with a buffer solution in a three-fold serial dilution, the buffer solution being composed of 50 mM HEPES, 10 mM MgCl2, 0.01% TritonX-100, 0.01% BSA, 4 mM DTT (pH 7.5), and 1% DMSO; • ② 0.01 nM recombinant human GST fusion protein FGFR1's cytoplasmic domain [398-822 (terminal) amino acids] (Carna: 08-133) was formulated into a 2 × solution, mixed well with the test compounds, and incubated at 23°C for 10 minutes; • ③ 28 nM Fluorescein-Poly GT peptide substrate (Life Technologies: PV3611) and 28 µM ATP were formulated into a 2 × solution, mixed well with the test compounds and enzyme in ②, and incubated at 23°C for 30 minutes; • ④ 10 µL of 2nM Tb-PY20 antibody (Life Technologies: PV3552) and 10 mM EDTA were added to quench the kinase reaction, and incubated at 22°C for 60 minutes. • ⑤ The reaction was measured using a PerkinElmer EnVision multimode plate reader through TR-FRET dual wavelength detection. • 1. The RFU values were copied from the Envision program. • 2. The ratio of RFU 520nm/RFU 495nm was calculated. • 3. The value of the ratio was converted to a percentage inhibition value. % Inhibition = (max-data)/(max-min) × 100 [formula]
"Min" represents the ratio of the control without enzyme, "max" represents the ratio of the DMSO control, and "data" represents the ratio of the compounds in wells with different concentrations.
"Top" refers to the maximum response, "Bottom" refers to the minimum response, and "HillSlope" refers to the slope of the curve.
According to the same method as that in the FGFR1 kinase activity inhibition assay, the inhibitory activities against FGFR2, FGFR3 and FGFR4 were tested using FGFR2's cytoplasmic domain [399-821 (terminal) amino acids] (Carna: 08-134), FGFR3's cytoplasmic domain [436-806 (terminal) amino acids] (Carna: 08-135) and FGFR4's cytoplasmic domain [460-802 (terminal) amino acids] (Carna: 08-136), respectively. […]

For orientation: IC50 means the point on the concentration scale where inhibition reaches its midpoint.

The structures appear in SMILES notation.

T1 sequence (P11362 398-822): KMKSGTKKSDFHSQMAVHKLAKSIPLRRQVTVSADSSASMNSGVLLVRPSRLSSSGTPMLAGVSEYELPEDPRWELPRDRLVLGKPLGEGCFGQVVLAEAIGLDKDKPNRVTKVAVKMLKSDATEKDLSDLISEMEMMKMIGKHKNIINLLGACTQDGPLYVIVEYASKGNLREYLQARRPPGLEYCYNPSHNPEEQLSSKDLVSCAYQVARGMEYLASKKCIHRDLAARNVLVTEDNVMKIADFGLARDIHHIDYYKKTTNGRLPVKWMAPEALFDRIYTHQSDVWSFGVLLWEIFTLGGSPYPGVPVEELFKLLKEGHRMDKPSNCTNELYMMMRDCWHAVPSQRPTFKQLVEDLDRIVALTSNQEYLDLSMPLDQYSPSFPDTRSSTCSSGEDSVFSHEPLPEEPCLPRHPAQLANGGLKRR

For `C[C@@H](Oc1cc(C(F)(F)F)c2[nH]nc(-c3cnn(C)c3)c2c1)c1c(Cl)cncc1Cl` [Example 1, (R)-5-(1-(3,5-dichloropyridin-4-yl)ethoxy)-3-(1-methyl-1H-pyrazol-4-yl)-7-(trifluoromethyl)-1H-indazole], the IC50 at FGFR1, on FGFR3 and at FGFR2 was more than 100 nM throughout. Besides, at FGFR3, the “Selectivity (X) FGFR1/FGFR3” value is recorded as “A (A represents 1 ≤ multiple X<20)”. Besides, the “Selectivity (X) FGFR2/FGFR3” value at FGFR3 (ratio of IC50 FGFR2/FGFR3, selectivity towards FGFR3) is given as “A (A represents 1 ≤ multiple X<20)”.
Take `CC(Oc1ccc2[nH]nc(-c3cnn(C4CN(CC(N)=O)C4)c3)c2c1)c1cccc2nccnc12` (centres unmarked) [Example 214, 2-(3-(4-(5-(1-(quinoxalin-5-yl)ethoxy)-1H-indazol-3-yl)-1H-pyrazol-1-yl)azetidin-1-yl)acetamide]: the IC50 at FGFR1 was 10 to 100 nM; on FGFR3, less than 1 nM. For the same compound, the “Selectivity (X) FGFR1/FGFR3” value at FGFR3 is listed as “B (B represents 20 ≤ multiple X<50)”.
Taken in the same sequence, the figures for `Cc1cc(C(C)Oc2ccc3[nH]nc(-c4cnn(C5CN(C(=O)C(C)(C)N)C5)c4)c3c2)c2cccnc2c1` (centres unmarked) [Example 215, 2-amino-2-methyl-1-(3-(4-(5-(1-(7-methylquinolin-5-yl)ethoxy)-1H-indazol-3-yl)-1H-pyrazol-1-yl)azetidin-1-yl)propan-1-one] were 10 to 100 nM, less than 1 nM and “B (B represents 20 ≤ multiple X<50)”.
For `CNC(C)(C)C(=O)N1CC(n2cc(-c3n[nH]c4ccc(OC(C)c5cccc6nccnc56)cc34)cn2)C1` (centres unmarked) [Example 216, 2-methyl-2-(methylamino)-1-(3-(4-(5-(1-(quinoxalin-5-yl)ethoxy)-1H-indazol-3-yl)-1H-pyrazol-1-yl)azetidin-1-yl)propan-1-one], the IC50 on FGFR1 fell in the range of 1 to 10 nM. Further, on FGFR3, the IC50 was less than 1 nM and the “Selectivity (X) FGFR1/FGFR3” value is given as “A (A represents 1 ≤ multiple X<20)”.
Regarding `Cc1ccc2ncccc2c1C(C)Oc1ccc2[nH]nc(-c3cnn(C4CN(C(=O)C(C)(C)O)C4)c3)c2c1` (centres unmarked) [Example 217, 2-hydroxy-2-methyl-1-(3-(4-(5-(1-(6-methylquinolin-5-yl)ethoxy)-1H-indazol-3-yl)-1H-pyrazol-1-yl)azetidin-1-yl)propan-1-one], the IC50 at FGFR1 is 10 to 100 nM. Also, on FGFR3, the IC50 was less than 1 nM and the “Selectivity (X) FGFR1/FGFR3” value is given as “C (C represents 50 ≤ multiple X<100)”.
Taken in the same sequence, the figures for `CC(Oc1ccc2[nH]nc(-c3cnn(C4CN(C(=O)C5CC5)C4)c3)c2c1)c1cccc2nccnc12` (centres unmarked) [Example 219, cyclopropyl(3-(4-(5-(1-(quinoxalin-5-yl)ethoxy)-1H-indazol-3-yl)-1H-pyrazol-1-yl)azetidin-1-yl)methanone] were 10 to 100 nM, less than 1 nM and “A (A represents 1 ≤ multiple X<20)”.
Consider `CC(Oc1ccc2[nH]nc(-c3cnn(CCCS(C)(=O)=O)c3)c2c1)c1cc(Cl)cc2nccnc12` (centres unmarked) [Example 220, 7-chloro-5-(1-((3-(1-(3-(methylsulfonyl)propyl)-1H-pyrazol-4-yl)-1H-indazol-5-yl)oxy)ethyl)quinox aline], for which the IC50 on FGFR1 was in the range of 10 to 100 nM. Moreover, at FGFR3, the IC50 was less than 1 nM and the “Selectivity (X) FGFR1/FGFR3” value is on record as “C (C represents 50 ≤ multiple X<100)”.
Consider `CC(Oc1ccc2[nH]nc(-c3cnn(C4CN(C(=O)C5(O)CCC5)C4)c3)c2c1)c1cccc2nccnc12` (centres unmarked) [Example 221, (1-hydroxycyclobutyl)(3-(4-(5-(1-(quinoxalin-5-yl)ethoxy)-1H-indazol-3-yl)-1H-pyrazol-1-yl)azetidin-1-yl)methanone], for which the IC50 is 1 to 10 nM at FGFR1 and less than 1 nM at FGFR3. For the same compound, at FGFR3, the “Selectivity (X) FGFR1/FGFR3” value is “B (B represents 20 ≤ multiple X<50)”.
Regarding `CC(Oc1ccc2[nH]nc(-c3cnn(C4CN(C(=O)C5(O)CC5)C4)c3)c2c1)c1cc(Cl)cc2nccnc12` (centres unmarked) [Example 222, (3-(4-(5-(1-(7-chloroquinoxalin-5-yl)ethoxy)-1H-indazol-3-yl)-1H-pyrazol-1-yl)azetidin-1-yl)(1-hydroxycyclopropyl)methanone], on FGFR1, the IC50 was in the range of 10 to 100 nM. Besides, at FGFR3, the IC50 was less than 1 nM and the “Selectivity (X) FGFR1/FGFR3” value was “B (B represents 20 ≤ multiple X<50)”.
Consider `Cc1cc2nccnc2c(C(C)Oc2cc(F)c3[nH]nc(-c4cnn(C)c4)c3c2)n1` (centres unmarked) [Example 225, 5-(1-((7-fluoro-3-(1-methyl-1H-pyrazol-4-yl)-1H-indazol-5-yl)oxy)ethyl)-7-methylpyridino[3,4-b]pyrazine], for which the IC50 at FGFR1 is 1 to 10 nM; at FGFR3, less than 1 nM. In addition, the “Selectivity (X) FGFR1/FGFR3” value on FGFR3 is on record as “A (A represents 1 ≤ multiple X<20)”.
Consider `COc1cc(OC(C)c2cc(Cl)cc3nccnc23)cc2c(-c3cnn(C)c3)n[nH]c12` (centres unmarked) [Example 226], for which, on FGFR1, the IC50 was more than 100 nM. Further, at FGFR3, the IC50 lay in the range of 1 to 10 nM and the “Selectivity (X) FGFR1/FGFR3” value was “B (B represents 20 ≤ multiple X<50)”.
Take `CC(Oc1cc(F)c2[nH]nc(-c3cnn(C)c3)c2c1)c1cc(Cl)cc2nccnc12` (centres unmarked) [Example 228, 7-chloro-5-(1-((7-fluoro-3-(1-methyl-1H-pyrazol-4-yl)-1H-indazol-5-yl)oxy)ethyl)qu inoxaline]: the values for the half-inhibitory concentration (IC50) at FGFR1 and on FGFR3 were 10 to 100 nM and 1 to 10 nM, respectively. The “Selectivity (X) FGFR1/FGFR3” value on FGFR3 was “B (B represents 20 ≤ multiple X<50)”.
Take `CC(Oc1ccc2[nH]nc(-c3cnn(C4CC(S(C)(=O)=O)C4)c3)c2c1)c1cccc2nccnc12` (centres unmarked) [Example 229, 5-(1-((3-(1-(3-(methylsulfonyl)cyclobutyl)-1H-pyrazol-4-yl)-1H-indazol-5-yl)oxy)ethyl)quinoxaline]: the IC50 on FGFR1 was in the range of 10 to 100 nM. At FGFR3, the IC50 was less than 1 nM and the “Selectivity (X) FGFR1/FGFR3” value is reported as “B (B represents 20 ≤ multiple X<50)”.
Consider `CC(Oc1ccc2[nH]nc(-c3cnn(C)c3)c2c1)c1nc(C2CC2)cc2nccnc12` (centres unmarked) [Example 230, 7-cyclopropyl-5-(1-((3-(1-methyl-1H-pyrazol-4-yl)-1H-indazol-5-yl)oxy)ethyl)pyri dino[3,4-b]pyrazine], for which the IC50 at FGFR1 was 1 to 10 nM. Moreover, on FGFR3, the IC50 was less than 1 nM and the “Selectivity (X) FGFR1/FGFR3” value was “A (A represents 1 ≤ multiple X<20)”.
For the compound `CC(Oc1ccc2[nH]nc(-c3cnn(C)c3)c2c1)c1c(C(F)F)ccc2nccnc12` (centres unmarked) [Example 232], the figures for the IC50 on FGFR1 and at FGFR3 were 1 to 10 nM and less than 1 nM, respectively. Further, at FGFR3, the “Selectivity (X) FGFR1/FGFR3” value is “A (A represents 1 ≤ multiple X<20)”.
For the compound `CC(C)c1cc2nccnc2c(C(C)Oc2ccc3[nH]nc(-c4cnn(C)c4)c3c2)n1` (centres unmarked) [Example 237], the IC50 at FGFR1 lay within 10 to 100 nM. Moreover, at FGFR3, the IC50 was 1 to 10 nM and the “Selectivity (X) FGFR1/FGFR3” value is reported as “B (B represents 20 ≤ multiple X<50)”.
On the same counts, the results for `CC(Oc1ccc2[nH]nc(-c3cnn(C4CN(C(=O)C5CC5)C4)c3)c2c1)c1cc(Cl)cc2nccnc12` (centres unmarked) [Example 238, (3-(4-(5-(1-(7-chloroquinoxalin-5-yl)ethoxy)-1H-indazol-3-yl)-1H-pyrazol-1-yl)azetidin-1-yl)(cyclopropyl) methanone] are 10 to 100 nM, less than 1 nM and “B (B represents 20 ≤ multiple X<50)”.
In the case of `CC(Oc1ccc2[nH]nc(-c3cnn(C4COC4)c3)c2c1)c1cc(Cl)cc2nccnc12` (centres unmarked) [Example 239], the IC50 at FGFR1 was in the range of 10 to 100 nM. Also, at FGFR3, the IC50 lay in the range of 1 to 10 nM and the “Selectivity (X) FGFR1/FGFR3” value is reported as “C (C represents 50 ≤ multiple X<100)”.
As for `CC(Oc1ccc2[nH]nc(-c3cnn(C4CN(C=O)C4)c3)c2c1)c1cc(Cl)cc2nccnc12` (centres unmarked) [Example 240, 3-(4-(5-(1-(7-chloroquinoxalin-5-yl)ethoxy)-1H-indazol-3-yl)-1H-pyrazol-1-yl)azetidine-1-carbaldehyde], the IC50 on FGFR1 was in the range of 10 to 100 nM. Further, on FGFR3, the IC50 was less than 1 nM and the “Selectivity (X) FGFR1/FGFR3” value is “B (B represents 20 ≤ multiple X<50)”.

These data come from patent publication EP4644383A1 (Jiangsu Yahong Meditech Co., Ltd., priority 2022, dated 2024).
